Measured values published in ChEMBL document CHEMBL4507294, “Data for DCP probe MSD-CYP11B2” (2021).

Legend:
[1] = test system: Mast/stem cell growth factor receptor Kit (Homo sapiens), P10721 [A829P]; conditions: Compound concentration 1000.0 nM
[2] = molecular target: Dual specificity mitogen-activated protein kinase kinase 3 (Homo sapiens) (UniProt P46734); conditions: Compound concentration 1000.0 nM
[3] = molecular target: Inhibitor of nuclear factor kappa-B kinase subunit alpha (Homo sapiens) (UniProt O15111); conditions: Compound concentration 1000.0 nM
[4] = molecular target: Protein kinase C epsilon type (Homo sapiens) (UniProt Q02156); conditions: Compound concentration 1000.0 nM
[5] = molecular target: Serine/threonine-protein kinase MRCK gamma (Homo sapiens) (UniProt Q6DT37); conditions: Compound concentration 1000.0 nM
Chain of Serine/threonine-protein kinase MRCK gamma (Homo sapiens) (Q6DT37 whole entry): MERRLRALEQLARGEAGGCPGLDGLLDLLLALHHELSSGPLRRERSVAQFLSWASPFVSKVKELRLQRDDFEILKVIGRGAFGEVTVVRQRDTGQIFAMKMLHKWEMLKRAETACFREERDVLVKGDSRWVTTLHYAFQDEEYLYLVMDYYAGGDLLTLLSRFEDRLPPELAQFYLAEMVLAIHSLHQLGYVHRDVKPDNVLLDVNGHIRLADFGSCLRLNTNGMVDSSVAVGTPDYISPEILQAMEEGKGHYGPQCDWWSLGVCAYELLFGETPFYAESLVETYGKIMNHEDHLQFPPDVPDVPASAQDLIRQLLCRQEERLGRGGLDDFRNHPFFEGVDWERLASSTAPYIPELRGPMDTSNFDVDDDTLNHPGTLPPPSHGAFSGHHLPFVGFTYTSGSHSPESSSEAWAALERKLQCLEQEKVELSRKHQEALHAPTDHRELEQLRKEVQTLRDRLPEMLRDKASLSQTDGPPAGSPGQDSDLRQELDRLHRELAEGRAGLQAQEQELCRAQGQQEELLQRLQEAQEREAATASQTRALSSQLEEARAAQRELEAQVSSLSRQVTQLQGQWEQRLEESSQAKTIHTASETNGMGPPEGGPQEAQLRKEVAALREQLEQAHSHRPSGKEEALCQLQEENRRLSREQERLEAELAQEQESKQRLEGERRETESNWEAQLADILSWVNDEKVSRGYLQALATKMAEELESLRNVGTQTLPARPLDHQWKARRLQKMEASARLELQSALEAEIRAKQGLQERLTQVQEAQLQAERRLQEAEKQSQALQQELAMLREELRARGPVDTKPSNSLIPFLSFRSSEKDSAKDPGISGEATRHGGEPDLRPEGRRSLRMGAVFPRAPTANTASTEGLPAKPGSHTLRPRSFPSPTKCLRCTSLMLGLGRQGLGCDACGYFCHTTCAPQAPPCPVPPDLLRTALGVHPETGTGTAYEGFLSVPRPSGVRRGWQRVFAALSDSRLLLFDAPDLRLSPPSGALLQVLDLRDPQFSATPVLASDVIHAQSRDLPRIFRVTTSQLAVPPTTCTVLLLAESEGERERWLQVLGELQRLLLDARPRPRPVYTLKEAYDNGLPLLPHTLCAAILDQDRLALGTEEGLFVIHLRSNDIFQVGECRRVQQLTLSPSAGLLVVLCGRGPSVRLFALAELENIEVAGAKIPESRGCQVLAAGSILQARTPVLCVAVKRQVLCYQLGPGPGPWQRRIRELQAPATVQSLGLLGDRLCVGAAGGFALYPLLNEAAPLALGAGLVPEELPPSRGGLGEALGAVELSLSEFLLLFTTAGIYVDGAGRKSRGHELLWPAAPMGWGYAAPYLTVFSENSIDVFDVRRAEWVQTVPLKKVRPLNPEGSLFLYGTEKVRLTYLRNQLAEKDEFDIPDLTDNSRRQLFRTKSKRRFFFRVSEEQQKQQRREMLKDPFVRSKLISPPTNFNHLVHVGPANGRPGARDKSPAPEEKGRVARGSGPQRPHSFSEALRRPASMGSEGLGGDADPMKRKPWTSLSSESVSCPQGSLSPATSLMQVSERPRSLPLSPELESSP

[6] = molecular target: Cyclin-dependent kinase 18 (Homo sapiens) (UniProt Q07002); conditions: Compound concentration 1000.0 nM
[7] = molecular target: Serine/threonine-protein kinase PknB (Mycobacterium tuberculosis) (UniProt P9WI81); conditions: Compound concentration 1000.0 nM
[8] = molecular target: Tyrosine-protein kinase Lck (Homo sapiens) (UniProt P06239); conditions: Compound concentration 1000.0 nM
[9] = test system: Mast/stem cell growth factor receptor Kit (Homo sapiens), P10721 [V559D,T670I]; conditions: Compound concentration 1000.0 nM
[10] = molecular target: Cyclin-G-associated kinase (Homo sapiens) (UniProt O14976); conditions: Compound concentration 1000.0 nM
[11] = molecular target: Cyclin-dependent kinase 2 homolog (Plasmodium falciparum (isolate 3D7)) (UniProt P61075); conditions: Compound concentration 1000.0 nM
[12] = molecular target: RAF proto-oncogene serine/threonine-protein kinase (Homo sapiens) (UniProt P04049); conditions: Compound concentration 1000.0 nM
[13] = molecular target: Serine/threonine-protein kinase Chk2 (Homo sapiens) (UniProt O96017); conditions: Compound concentration 1000.0 nM
Chain of Serine/threonine-protein kinase Chk2 (Homo sapiens) (O96017 whole entry): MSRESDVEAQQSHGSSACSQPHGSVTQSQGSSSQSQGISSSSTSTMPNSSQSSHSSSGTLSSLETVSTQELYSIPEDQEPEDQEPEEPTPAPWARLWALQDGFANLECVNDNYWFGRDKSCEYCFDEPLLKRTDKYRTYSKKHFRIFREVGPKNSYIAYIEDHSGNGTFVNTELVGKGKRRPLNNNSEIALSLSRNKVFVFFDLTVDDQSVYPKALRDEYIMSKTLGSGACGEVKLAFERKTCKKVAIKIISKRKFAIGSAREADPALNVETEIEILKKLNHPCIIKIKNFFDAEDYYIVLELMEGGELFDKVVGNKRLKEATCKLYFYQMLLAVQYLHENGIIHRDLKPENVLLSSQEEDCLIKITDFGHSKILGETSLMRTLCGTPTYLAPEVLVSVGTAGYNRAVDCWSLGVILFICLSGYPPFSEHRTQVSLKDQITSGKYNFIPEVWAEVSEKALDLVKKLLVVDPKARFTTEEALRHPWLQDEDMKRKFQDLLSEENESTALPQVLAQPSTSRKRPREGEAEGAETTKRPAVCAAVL

[14] = molecular target: Eukaryotic translation initiation factor 2-alpha kinase 1 (Homo sapiens) (UniProt Q9BQI3); conditions: Compound concentration 1000.0 nM
[15] = molecular target: cGMP-dependent protein kinase 2 (Homo sapiens) (UniProt Q13237); conditions: Compound concentration 1000.0 nM
[16] = molecular target: Leukocyte tyrosine kinase receptor (Homo sapiens) (UniProt P29376); conditions: Compound concentration 1000.0 nM
[17] = test system: Epidermal growth factor receptor (Homo sapiens), P00533 [UNDEFINED MUTATION]; conditions: Compound concentration 1000.0 nM
[18] = molecular target: Rho-associated protein kinase 2 (Homo sapiens) (UniProt O75116); conditions: Compound concentration 1000.0 nM
Chain of Rho-associated protein kinase 2 (Homo sapiens) (O75116 whole entry, looked up): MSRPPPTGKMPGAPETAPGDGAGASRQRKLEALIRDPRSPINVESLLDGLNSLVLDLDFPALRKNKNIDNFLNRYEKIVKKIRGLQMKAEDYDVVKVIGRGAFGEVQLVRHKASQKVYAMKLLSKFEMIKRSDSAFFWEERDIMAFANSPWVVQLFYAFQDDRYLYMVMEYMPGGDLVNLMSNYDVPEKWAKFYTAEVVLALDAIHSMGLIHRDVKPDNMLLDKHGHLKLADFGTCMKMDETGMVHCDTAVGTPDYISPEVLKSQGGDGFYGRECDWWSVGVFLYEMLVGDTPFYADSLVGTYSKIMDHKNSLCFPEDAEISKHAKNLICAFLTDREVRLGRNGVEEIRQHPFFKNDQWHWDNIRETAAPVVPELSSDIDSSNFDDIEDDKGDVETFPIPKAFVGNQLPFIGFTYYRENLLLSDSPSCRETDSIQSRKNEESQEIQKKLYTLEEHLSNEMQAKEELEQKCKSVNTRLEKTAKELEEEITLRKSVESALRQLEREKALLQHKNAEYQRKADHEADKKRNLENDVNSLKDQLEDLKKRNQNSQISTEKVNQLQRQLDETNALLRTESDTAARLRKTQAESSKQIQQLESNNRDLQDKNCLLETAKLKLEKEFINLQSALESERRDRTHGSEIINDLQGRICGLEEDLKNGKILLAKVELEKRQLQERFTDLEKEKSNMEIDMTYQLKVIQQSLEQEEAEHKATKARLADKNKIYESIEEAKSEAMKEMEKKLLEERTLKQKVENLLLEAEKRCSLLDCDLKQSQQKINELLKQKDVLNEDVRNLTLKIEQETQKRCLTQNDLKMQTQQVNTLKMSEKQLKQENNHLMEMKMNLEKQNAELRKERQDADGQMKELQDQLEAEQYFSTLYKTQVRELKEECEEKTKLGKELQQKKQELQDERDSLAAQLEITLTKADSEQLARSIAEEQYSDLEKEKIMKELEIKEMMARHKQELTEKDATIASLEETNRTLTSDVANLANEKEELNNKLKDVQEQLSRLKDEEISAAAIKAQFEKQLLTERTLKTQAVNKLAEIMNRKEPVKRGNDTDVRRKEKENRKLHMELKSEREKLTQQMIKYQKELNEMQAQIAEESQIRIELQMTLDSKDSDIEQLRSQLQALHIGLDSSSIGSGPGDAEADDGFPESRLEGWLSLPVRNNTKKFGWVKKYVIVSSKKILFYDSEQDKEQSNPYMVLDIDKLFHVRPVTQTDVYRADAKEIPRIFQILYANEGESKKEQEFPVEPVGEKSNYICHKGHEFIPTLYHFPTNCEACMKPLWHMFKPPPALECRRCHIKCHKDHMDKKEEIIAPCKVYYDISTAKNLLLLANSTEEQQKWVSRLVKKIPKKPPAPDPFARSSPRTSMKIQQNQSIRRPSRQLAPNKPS

[19] = molecular target: Serine/threonine-protein kinase ULK1 (Homo sapiens) (UniProt O75385); conditions: Compound concentration 1000.0 nM
[20] = molecular target: Wee1-like protein kinase 2 (Homo sapiens) (UniProt P0C1S8); conditions: Compound concentration 1000.0 nM
[21] = molecular target: Mitogen-activated protein kinase kinase kinase kinase 1 (Homo sapiens) (UniProt Q92918); conditions: Compound concentration 1000.0 nM
[22] = test system: Tyrosine-protein kinase ABL1 (Homo sapiens), P00519 [Q252H]; conditions: Compound concentration 1000.0 nM
[23] = molecular target: Ribosomal protein S6 kinase alpha-5 (Homo sapiens) (UniProt O75582); conditions: Compound concentration 1000.0 nM
[24] = molecular target: TRAF2 and NCK-interacting protein kinase (Homo sapiens) (UniProt Q9UKE5); conditions: Compound concentration 1000.0 nM
[25] = molecular target: Cyclin-dependent kinase 2 (Homo sapiens) (UniProt P24941); conditions: Compound concentration 1000.0 nM
[26] = test system: Mast/stem cell growth factor receptor Kit (Homo sapiens), P10721 [L576P]; conditions: Compound concentration 1000.0 nM
[27] = molecular target: Tyrosine-protein kinase Fyn (Homo sapiens) (UniProt P06241); conditions: Compound concentration 1000.0 nM
[28] = molecular target: Dual specificity tyrosine-phosphorylation-regulated kinase 1B (Homo sapiens) (UniProt Q9Y463); conditions: Compound concentration 1000.0 nM
[29] = molecular target: Mitogen-activated protein kinase 1 (Homo sapiens) (UniProt P28482); conditions: Compound concentration 1000.0 nM
[30] = molecular target: Serine/threonine-protein kinase tousled-like 2 (Homo sapiens) (UniProt Q86UE8); conditions: Compound concentration 1000.0 nM
Chain of Serine/threonine-protein kinase tousled-like 2 (Homo sapiens) (Q86UE8 whole entry, looked up): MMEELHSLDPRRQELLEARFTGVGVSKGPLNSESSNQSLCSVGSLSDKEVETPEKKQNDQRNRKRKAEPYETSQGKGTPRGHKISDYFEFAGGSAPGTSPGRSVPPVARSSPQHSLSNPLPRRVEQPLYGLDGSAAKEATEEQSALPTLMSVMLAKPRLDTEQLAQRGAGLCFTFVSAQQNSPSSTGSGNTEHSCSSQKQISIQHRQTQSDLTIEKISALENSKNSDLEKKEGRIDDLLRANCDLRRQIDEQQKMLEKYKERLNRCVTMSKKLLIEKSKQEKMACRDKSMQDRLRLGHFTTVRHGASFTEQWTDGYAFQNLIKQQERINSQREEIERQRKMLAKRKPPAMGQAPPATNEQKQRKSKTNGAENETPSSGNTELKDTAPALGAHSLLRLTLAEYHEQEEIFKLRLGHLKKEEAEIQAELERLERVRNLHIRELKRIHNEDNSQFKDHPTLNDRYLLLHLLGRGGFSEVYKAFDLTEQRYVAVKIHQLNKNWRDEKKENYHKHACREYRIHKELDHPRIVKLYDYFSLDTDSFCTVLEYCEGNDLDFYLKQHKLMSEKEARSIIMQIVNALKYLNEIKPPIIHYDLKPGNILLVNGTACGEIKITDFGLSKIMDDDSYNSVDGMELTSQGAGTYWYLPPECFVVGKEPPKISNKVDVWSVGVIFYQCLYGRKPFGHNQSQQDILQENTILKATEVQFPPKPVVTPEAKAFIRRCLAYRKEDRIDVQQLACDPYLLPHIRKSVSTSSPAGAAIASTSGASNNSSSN

[31] = molecular target: Kappa-type opioid receptor (Homo sapiens) (UniProt P41145); conditions: Compound concentration 10.0 uM
[32] = molecular target: Serine/threonine-protein kinase 24 (Homo sapiens) (UniProt Q9Y6E0); conditions: Compound concentration 1000.0 nM
[33] = molecular target: Protein kinase C iota type (Homo sapiens) (UniProt P41743); conditions: Compound concentration 1000.0 nM
[34] = molecular target: Serine/threonine-protein kinase 17B (Homo sapiens) (UniProt O94768); conditions: Compound concentration 1000.0 nM
[35] = molecular target: Serine/threonine-protein kinase TAO3 (Homo sapiens) (UniProt Q9H2K8); conditions: Compound concentration 1000.0 nM
[36] = molecular target: Myosin light chain kinase family member 4 (Homo sapiens) (UniProt Q86YV6); conditions: Compound concentration 1000.0 nM
[37] = molecular target: Activin receptor type-1-like (Homo sapiens) (UniProt P37023); conditions: Compound concentration 1000.0 nM
Chain of Activin receptor type-1-like (Homo sapiens) (P37023 whole entry): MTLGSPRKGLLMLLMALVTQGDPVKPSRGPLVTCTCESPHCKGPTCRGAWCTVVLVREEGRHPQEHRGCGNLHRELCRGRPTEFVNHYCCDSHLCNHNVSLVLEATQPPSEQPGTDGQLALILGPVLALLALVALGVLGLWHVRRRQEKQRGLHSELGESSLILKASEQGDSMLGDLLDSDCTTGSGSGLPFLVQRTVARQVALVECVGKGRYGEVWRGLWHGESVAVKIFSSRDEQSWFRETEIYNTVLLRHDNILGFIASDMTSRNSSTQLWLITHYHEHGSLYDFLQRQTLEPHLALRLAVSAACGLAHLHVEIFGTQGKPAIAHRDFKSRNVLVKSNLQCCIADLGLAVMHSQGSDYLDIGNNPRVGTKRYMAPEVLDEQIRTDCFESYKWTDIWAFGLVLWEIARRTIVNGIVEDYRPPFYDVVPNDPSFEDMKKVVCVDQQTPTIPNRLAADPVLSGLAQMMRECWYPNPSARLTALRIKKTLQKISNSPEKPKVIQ

[38] = molecular target: Platelet-derived growth factor receptor alpha (Homo sapiens) (UniProt P16234); conditions: Compound concentration 1000.0 nM
[39] = molecular target: Mast/stem cell growth factor receptor Kit (Homo sapiens) (UniProt P10721); conditions: Compound concentration 1000.0 nM
[40] = molecular target: Serine/threonine-protein kinase PAK 3 (Homo sapiens) (UniProt O75914); conditions: Compound concentration 1000.0 nM
[41] = molecular target: Serine/threonine-protein kinase PLK3 (Homo sapiens) (UniProt Q9H4B4); conditions: Compound concentration 1000.0 nM
[42] = molecular target: D(3) dopamine receptor (Homo sapiens) (UniProt P35462); conditions: Compound concentration 10.0 uM
[43] = molecular target: Mitogen-activated protein kinase kinase kinase kinase 5 (Homo sapiens) (UniProt Q9Y4K4); conditions: Compound concentration 1000.0 nM
[44] = molecular target: Serine/threonine-protein kinase DCLK2 (Homo sapiens) (UniProt Q8N568); conditions: Compound concentration 1000.0 nM
[45] = molecular target: Serine/threonine-protein kinase tousled-like 1 (Homo sapiens) (UniProt Q9UKI8); conditions: Compound concentration 1000.0 nM

Chain of Dual specificity mitogen-activated protein kinase kinase 3 (Homo sapiens) (P46734 whole entry): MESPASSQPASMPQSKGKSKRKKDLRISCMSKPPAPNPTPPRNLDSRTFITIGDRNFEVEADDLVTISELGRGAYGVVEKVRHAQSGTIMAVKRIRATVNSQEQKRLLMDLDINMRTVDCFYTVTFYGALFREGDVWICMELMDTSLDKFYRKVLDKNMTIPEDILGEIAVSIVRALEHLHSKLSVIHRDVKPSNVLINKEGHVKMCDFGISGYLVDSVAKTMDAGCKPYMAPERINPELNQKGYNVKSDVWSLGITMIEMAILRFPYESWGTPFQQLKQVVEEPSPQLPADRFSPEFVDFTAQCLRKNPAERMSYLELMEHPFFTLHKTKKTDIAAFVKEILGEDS

Q: With `FC(F)(F)c1ccc2c(c1)nc(-c1cccnc1)n2C1CC1` [MSD-CYP11B2-Negative-control] as the compound, how does the residual activity [1] read?
A: 100%

Q: What about the residual activity [2] of the same compound?
A: 100%

Q: And the residual activity [3]?
A: 100%

Q: What about the residual activity [4] of the same compound?
A: 97%

Q: What about the residual activity [5] of the same compound?
A: 100%

Q: What about the residual activity [6] of the same compound?
A: 100%

Q: What about the residual activity [7] of the same compound?
A: 100%

Q: What about the residual activity [8] of the same compound?
A: 100%

Q: And the residual activity [9]?
A: 100%

Q: And the residual activity [10]?
A: 100%

Q: What about the residual activity [11] of the same compound?
A: 100%

Q: And the residual activity [12]?
A: 76%

Q: What about the residual activity [13] of the same compound?
A: 100%

Q: What about the residual activity [14] of the same compound?
A: 100%

Q: And the residual activity [15]?
A: 78%

Q: What about the residual activity [16] of the same compound?
A: 100%

Q: What about the residual activity [17] of the same compound?
A: 100%

Q: What about the residual activity [18] of the same compound?
A: 100%

Q: And the residual activity [19]?
A: 100%

Q: And the residual activity [20]?
A: 100%

Q: What about the residual activity [21] of the same compound?
A: 93%

Q: And the residual activity [22]?
A: 81%

Q: And the residual activity [23]?
A: 100%

Q: What about the residual activity [24] of the same compound?
A: 100%

Q: And the residual activity [25]?
A: 100%

Q: And the residual activity [26]?
A: 100%

Q: What about the residual activity [27] of the same compound?
A: 100%

Q: And the residual activity [28]?
A: 53%

Q: And the residual activity [29]?
A: 100%

Q: What about the residual activity [30] of the same compound?
A: 100%

Q: What about the inhibition [31] of the same compound?
A: -1.84%

Q: And the residual activity [32]?
A: 100%

Q: What about the residual activity [33] of the same compound?
A: 83%

Q: What about the residual activity [34] of the same compound?
A: 100%

Q: And the residual activity [35]?
A: 100%

Q: What about the residual activity [36] of the same compound?
A: 100%

Q: What about the residual activity [37] of the same compound?
A: 100%

Q: What about the residual activity [38] of the same compound?
A: 100%

Q: What about the residual activity [39] of the same compound?
A: 100%

Q: What about the residual activity [40] of the same compound?
A: 100%

Q: And the residual activity [41]?
A: 100%

Q: And the inhibition [42]?
A: -1.96%

Q: And the residual activity [43]?
A: 100%

Q: And the residual activity [44]?
A: 100%

Q: And the residual activity [45]?
A: 100%

Q: `CC(C)(O)c1cncc(-c2nc3ccc(F)cc3n2C2CC2)c1` [MSD-CYP11B2] was tested. Which residual activity [1] did it give?
A: 100%

Q: What about the residual activity [2] of the same compound?
A: 100%

Q: What about the residual activity [3] of the same compound?
A: 100%

Q: What about the residual activity [4] of the same compound?
A: 100%

Q: And the residual activity [5]?
A: 100%

Q: And the residual activity [6]?
A: 100%

Q: And the residual activity [7]?
A: 100%

Q: And the residual activity [8]?
A: 100%

Q: And the residual activity [9]?
A: 100%

Q: And the residual activity [10]?
A: 100%

Q: What about the residual activity [11] of the same compound?
A: 100%

Q: What about the residual activity [12] of the same compound?
A: 83%

Q: What about the residual activity [13] of the same compound?
A: 100%

Q: What about the residual activity [14] of the same compound?
A: 100%

Q: What about the residual activity [15] of the same compound?
A: 90%

Q: What about the residual activity [16] of the same compound?
A: 100%

Q: And the residual activity [17]?
A: 100%

Q: What about the residual activity [18] of the same compound?
A: 92%

Q: What about the residual activity [19] of the same compound?
A: 100%

Q: What about the residual activity [20] of the same compound?
A: 100%

Q: And the residual activity [21]?
A: 99%

Q: What about the residual activity [22] of the same compound?
A: 89%

Q: And the residual activity [23]?
A: 100%

Q: And the residual activity [24]?
A: 100%

Q: And the residual activity [25]?
A: 100%

Q: What about the residual activity [26] of the same compound?
A: 100%

Q: What about the residual activity [27] of the same compound?
A: 100%

Q: What about the residual activity [28] of the same compound?
A: 44%

Q: What about the residual activity [29] of the same compound?
A: 100%

Q: And the residual activity [30]?
A: 100%

Q: What about the inhibition [31] of the same compound?
A: -8.65%

Q: And the residual activity [32]?
A: 100%

Q: What about the residual activity [33] of the same compound?
A: 89%

Q: What about the residual activity [34] of the same compound?
A: 77%

Q: And the residual activity [35]?
A: 100%

Q: And the residual activity [36]?
A: 100%

Q: And the residual activity [37]?
A: 100%

Q: What about the residual activity [38] of the same compound?
A: 100%

Q: And the residual activity [39]?
A: 100%

Q: What about the residual activity [40] of the same compound?
A: 100%

Q: What about the residual activity [41] of the same compound?
A: 100%

Q: And the inhibition [42]?
A: -6.18%

Q: And the residual activity [43]?
A: 92%

Q: And the residual activity [44]?
A: 100%

Q: And the residual activity [45]?
A: 100%
